Experimental findings from ChEMBL document CHEMBL5241112, “Insights into the recent progress in the medicinal chemistry of pyranopyrimidine analogs” (RSC Med Chem, 2022) are described below.

≈ marks a conversion by molar mass, not a printed value.

The subject of experiment [1] is HepG2. Nature of the experiment: Anticancer activity against human HepG2 cells assessed as reduction in cell viability. The format is functional, cell-based.
Experiment [2] concerns MCF7. Nature of the experiment: Anticancer activity against human MCF7 cells assessed as reduction in cell viability. The format is functional, cell-based.
The subject of experiment [3] is HCT-116. The experiment is described as follows: cells. Particulars: Homo sapiens.
Experiment [4] concerns Staphylococcus aureus. The experiment is described as follows: Antibacterial activity against Staphylococcus aureus assessed as diameter of inhibition zone. The format is functional.
Experiment [5] relates to Bacillus subtilis. Nature of the experiment: Antibacterial activity against Bacillus subtilis assessed as diameter of inhibition zone. It is filed as functional.
In experiment [6] the test system is Escherichia coli. The experiment is described as follows: Antibacterial activity against Escherichia coli assessed as diameter of inhibition zone. It is filed as functional.
In experiment [7] the test system is Salmonella typhimurium. The experiment is described as follows: Antibacterial activity against Salmonella typhimurium assessed as diameter of inhibition zone. The format is functional, Salmonella enterica subsp. enterica serovar Typhimurium.
Experiment [8] has as its system MCF7. Nature of the experiment: cells. Particulars: Homo sapiens, MCF7, 48 h.
The target in experiment [9] is Alpha-glucosidase (Saccharomyces cerevisiae S288c, UniProt P53341+P38158+P07265). Nature of the experiment: Inhibition of Saccharomyces cerevisiae alpha-glucosidase preincubated for 5 mins followed by PNP-GLUC substrate addition and measured after 20 mins by spectroscopic analysis. The format is protein assay.
Experiment [10] addresses Albumin (Bos taurus, UniProt P02769). The experiment is described as follows: […] bovine serum albumin denaturation incubated for 23 mins by UV-Visible spectrophotometry.
Experiment [11] in a line: Inhibition of porcine pancreatic alpha-amylase preincubated for 10 mins followed by substrate starch addition and measured after 10 mins by colorimetric analysis. On the set-up: species or system Sus scrofa.
The test system of experiment [12] is Mycobacterium tuberculosis. Nature of the experiment: Antitubercular activity against Mycobacterium tuberculosis H37Rv assessed as bacterial growth inhibition incubated for 24 hrs by MABA assay. The format is functional.
Experiment [13] can be described thus: Antioxidant activity assessed as DPPH radical scavenging activity incubated for 20 mins by spectrophotometric analysis. The format is functional. On the set-up: concentration or dose not given beside the values. (The DPPH test is a chemical assay of radical scavenging.)
Experiment [14] is described as follows: Antioxidant activity assessed as hydroxyl radical scavenging activity incubated for 5 mins by spectrophotometric analysis. The format is functional. Also on record: concentration or dose not given beside the values.
Experiment [15] relates to Bacillus cereus. The experiment is described as follows: Antimicrobial activity against Bacillus cereus ATCC14579 assessed as diameter of inhibition zone at 20 mg/ml incubated for 24 hrs by disk diffusion method. The note with it: read-out: DIZ. It is filed as functional. Background: A growth-free zone around the sample is the usual read-out of agar diffusion tests.
In experiment [16] the test system is Staphylococcus aureus. Nature of the experiment: Antimicrobial activity against Staphylococcus aureus NCTC7447 assessed as diameter of inhibition zone at 20 mg/ml incubated for 24 hrs by disk diffusion method. Particulars: read-out: DIZ. The format is functional.
The subject of experiment [17] is Klebsiella pneumoniae. The experiment is described as follows: Antimicrobial activity against Klebsiella pneumoniae UC57 assessed as diameter of inhibition zone at 20 mg/ml incubated for 24 hrs by disk diffusion method. The format is functional. The note with it: read-out: DIZ.
In experiment [18] the test system is Pseudomonas aeruginosa. Nature of the experiment: Antimicrobial activity against Pseudomonas aeruginosa ATCC 27853 assessed as diameter of inhibition zone at 20 mg/ml incubated for 24 hrs by disk diffusion method. The note with it: read-out: DIZ. The format is functional.
Experiment [19] relates to Escherichia coli. Nature of the experiment: Antimicrobial activity against Escherichia coli ATCC 14169 assessed as diameter of inhibition zone at 20 mg/ml incubated for 24 hrs by disk diffusion method. The format is functional. Particulars: read-out: DIZ.

Chain of Albumin (P02769 whole entry): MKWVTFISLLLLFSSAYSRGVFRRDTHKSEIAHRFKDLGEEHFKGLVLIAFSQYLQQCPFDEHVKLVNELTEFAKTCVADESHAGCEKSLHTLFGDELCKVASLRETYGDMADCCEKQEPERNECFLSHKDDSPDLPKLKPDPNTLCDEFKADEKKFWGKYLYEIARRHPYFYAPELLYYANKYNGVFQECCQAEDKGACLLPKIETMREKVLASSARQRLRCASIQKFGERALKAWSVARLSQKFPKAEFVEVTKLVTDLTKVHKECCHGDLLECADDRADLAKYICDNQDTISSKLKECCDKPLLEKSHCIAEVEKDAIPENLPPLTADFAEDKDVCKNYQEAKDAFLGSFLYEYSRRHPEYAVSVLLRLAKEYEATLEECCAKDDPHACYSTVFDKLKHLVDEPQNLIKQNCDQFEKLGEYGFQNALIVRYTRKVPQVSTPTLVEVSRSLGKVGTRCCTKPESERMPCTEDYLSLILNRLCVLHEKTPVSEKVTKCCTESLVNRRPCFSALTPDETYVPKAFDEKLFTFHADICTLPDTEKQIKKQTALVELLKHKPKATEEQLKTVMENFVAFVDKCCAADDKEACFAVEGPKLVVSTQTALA

A word on the IC50: it is the point on the concentration scale where inhibition reaches its midpoint. For `CCO/C=N/C1=C(C#N)C(c2ccc(OC)cc2)c2c([nH]c(=O)[nH]c2=O)O1` (stereo not drawn), the figures for the IC50 in experiment [1], in [2] and in [3] were 2.09 µM, 2.43 µM and 2.61 µM, respectively.

In the case of `N#CC1=C(N)Oc2[nH]c(=O)[nH]c(=O)c2C1c1cccc(Br)c1` (stereo not drawn), the “diameter of the inhibition zone (DIZ)” value in experiment [4] is reported as 16 mm; in experiment [5], 18 mm; in [6], 14 mm; in experiment [7] it was 16 mm.

For `COc1cc(C2CC(=O)Oc3[nH]c(=O)[nH]c(=O)c32)cc(OC)c1OC` (stereo not drawn), half-maximal inhibition in experiment [8] (IC50) was put at 8.9 µM.

Regarding `N#CC1=C(N)Oc2[nH]c(=O)[nH]c(=O)c2C1c1ccc(F)cc1` (stereo not drawn), the “diameter of the inhibition zone (DIZ)” value in experiment [5] is on record as 10 mm; in experiment [6], 8 mm; in experiment [7] it was 12 mm.

Take `O=c1[nH]cc(F)c(=O)[nH]1` [FLUOROURACIL]: the IC50 in experiment [8] was 5.4 µM.

On to `COc1cc(C2C(C(=O)N3CCCCC3)=C(c3ccccc3O)Oc3[nH]c(=S)[nH]c(=O)c32)ccc1O` (stereo not drawn), for which the IC50 in experiment [9] is 4862 µM; in [10] it was 23.3 µM; in [11], 22.6 µM.

As usually defined, the MIC is the lowest concentration that inhibits growth of the organism. With `O=c1nc2c3c([nH]1)Oc1cc(O)ccc1C3c1c(c3ccccc3oc1=O)O2` (stereo not drawn), the MIC in experiment [12] amounted to 50 µg/mL (≈ 134 µM).

With `O=c1[nH]c2c(c(=O)[nH]1)Oc1c(c(=O)oc3ccccc13)C2c1ccccc1O` (stereo not drawn), the Activity in [13] turned out to be 59.1%; in experiment [14] it was 54.3%.

In the case of `COc1ccc(C2C(C#N)=C(N)Oc3[nH]c(=O)[nH]c(=O)c32)cc1OC` (stereo not drawn), the zone of inhibition at 20000 µg/mL in experiment [15] was 9 mm; in [16], 8 mm; in experiment [17], 14 mm; in [18], 4 mm; in [19], 8 mm. The figures for the “diameter of the inhibition zone (DIZ)” value in experiment [5] and in experiment [7] were 10 mm and 8 mm, respectively.

Consider `COc1ccc2c(c1)C1c3c(nc(=O)[nH]c3O2)Oc2c1c(=O)oc1ccccc21` (stereo not drawn), for which, in experiment [12], the minimal inhibitory concentration (MIC) turned out to be 50 µg/mL (≈ 129 µM).

On to `N#CC1=C(N)Oc2[nH]c(=O)[nH]c(=O)c2C1c1ccccc1[N+](=O)[O-]` (stereo not drawn), for which the zone of inhibition at 20000 µg/mL was 10 mm in experiment [15]; 5 mm in experiment [16]; 6 mm in experiment [17]; 9 mm in [18]; 11 mm in [19].

As for `O=c1nc2c3c([nH]1)Oc1ccc(Cl)cc1C3c1c(c3ccccc3oc1=O)O2` (stereo not drawn), the MIC in experiment [12] came to 6.25 µg/mL (≈ 15.9 µM).

Turning to `Cc1ccc(C2C(C(=O)N3CCCCC3)=C(c3ccccc3O)Oc3[nH]c(=S)[nH]c(=O)c32)cc1` (stereo not drawn), the 50% inhibitory concentration (IC50) in experiment [9] was 4000 µM; in experiment [10], 19.5 µM; in [11], 14.1 µM.

`COc1ccc(C2c3c([nH]c(=O)[nH]c3=O)Oc3ncn(-c4ccc(C)cc4)c(=N)c32)cc1` (stereo not drawn): the results for the IC50 in experiment [1], in experiment [2] and in [3] were 2.09 µM, 2.43 µM and 2.61 µM, respectively.

For the molecule `O=C(C1=C(c2ccccc2O)Oc2[nH]c(=S)[nH]c(=O)c2C1c1cc2ccccc2cc1O)N1CCCCC1` (stereo not drawn), the IC50 is 5337 µM in [9], 20.1 µM in [10] and 6.49 µM in experiment [11].

As for `O=c1[nH]c2c(c(=O)[nH]1)Oc1c(c(=O)oc3ccccc13)C2c1c(Cl)cccc1Cl` (stereo not drawn), the figures for the Activity in experiment [13] and in experiment [14] were 71.2% and 65.4%, respectively.

Take `N#CC1=C(N)Oc2[nH]c(=O)[nH]c(=O)c2C1c1ccccc1` (stereo not drawn): the zone of inhibition at 20000 µg/mL in [15] came to 12 mm; in experiment [16], 8 mm; in [17], 5 mm; in experiment [18], 14 mm; in experiment [19] it was 13 mm. In addition, the “diameter of the inhibition zone (DIZ)” value in experiment [4] came to 8 mm; in [5], 10 mm; in experiment [7], 10 mm.

In the case of `O=c1[nH]c2c(c(=O)[nH]1)Oc1c(c(=O)oc3ccccc13)C2c1ccc(F)cc1` (stereo not drawn), the Activity turned out to be 70.1% in experiment [13] and 62.1% in [14].
